Data: US20190117994A1, “METHODS USEFUL FOR REMODELING MAXILLOFACIAL BONE USING LIGHT THERAPY AND A FUNCTIONAL APPLIANCE” (Biolux Research Ltd., priority 2010, published 2019)

How the values were obtained:
[1] = system: teeth and alveolar bone of an adult patient; assay: Example 3: orthodontic treatment with daily light and oral vitamin D3 supplementation; format: in vivo; settings: passive (retention) phase, 2000 IU to 12,000 IU per day oral vitamin D3, light once per week at about 625 nm
Experimental: An adult patient is tested for Vitamin D3 blood serum levels at the same time as their routine orthodontic examination and records appointment. The patient's diagnosis is Class I mild crowding with 4 mm of crowding on the upper arch and 4 mm on the lower arch. An orthodontic treatment plan is formulated to include the installation of a fixed orthodontic appliance with some mild expansion of the upper and lower arches.
The patient self-administers oral oil-based vitamin D3 capsules of 6000 IU per day for 3 months to increase their vitamin D3 serum levels. Laboratory serum testing is optionally performed again after 3 months of vitamin D3 supplementation. The patient maintains or adjusts their oral dose of vitamin D3 based on their subsequent lab results.
Orthodontic treatment is started either after the 3 month period or anytime prior. The patient has conventional fixed orthodontic brackets, and bands placed on their teeth with an initial 0.016 inch NiTi wire tied in place with silcone ligatures. […]
At a passive state of orthodontic treatment, i.e., retention phase, a fixed retention orthodontic appliance is installed on the patient's teeth. […] The dosage can be determined based on vitamin D blood serum levels which can be measured periodically to determine dosing. […]

[2] = daily oral supplement of 2,000 IU to 6,000 IU in adults, within 3 months; cited from earlier work

Row | Molecule | alveolar bone density around the teeth [1] | blood levels of vitamin D [2] [ng/mL]
1 | C=C1CC[C@H](O)C/C1=C/C=C1\CCC[C@]2(C)[C@@H]([C@H](C)CCCC(C)C)CC[C@@H]12 [vitamin D3] | increased | –
2 | vitamin D | – | 40
